“And” between values parts separate entries of the source, which are not always exact repeats. Equal values may be shown once. Read-outs that look alike come from different tables or passages of the source.
Tests used:
CDK4-CYCLIND1 = CDK4-CYCLIND1 (Homo sapiens, UniProt P11802); assay: Microfluidic LabChip inhibition assay, CDK4-CYCLIND1; assay type: biochemical; settings: ATP 200 μM
Protocol: (§1) The reaction was terminated by the addition of EDTA. The plates were analyzed using a Caliper LabChip 3000.
(§2) Additional inhibition assays were performed as described above.

CDK6-CYCLIND3 = CDK6-CYCLIND3 (Homo sapiens, UniProt Q00534); assay: Microfluidic LabChip inhibition assay, CDK6-CYCLIND3; assay type: biochemical; settings: ATP 300 μM
Protocol: as §1, §2

[1] = Table 2, 25° C., read-out: CDK4 IC50
[2] = Table 2, 25° C., read-out: CDK6 IC50
[3] = Table 3a, second values in parentheses on the line below, not explained, read-out: CDK4 CyclinD1 IC50
[4] = Table 3b, second values in parentheses on the line below, not explained, read-out: CDK4 CyclinD1 IC50
[5] = Table 3a, read-out: CDK6 CyclinD3 IC50

CDK6-CYCLIND3, sequence (Q00534 whole entry): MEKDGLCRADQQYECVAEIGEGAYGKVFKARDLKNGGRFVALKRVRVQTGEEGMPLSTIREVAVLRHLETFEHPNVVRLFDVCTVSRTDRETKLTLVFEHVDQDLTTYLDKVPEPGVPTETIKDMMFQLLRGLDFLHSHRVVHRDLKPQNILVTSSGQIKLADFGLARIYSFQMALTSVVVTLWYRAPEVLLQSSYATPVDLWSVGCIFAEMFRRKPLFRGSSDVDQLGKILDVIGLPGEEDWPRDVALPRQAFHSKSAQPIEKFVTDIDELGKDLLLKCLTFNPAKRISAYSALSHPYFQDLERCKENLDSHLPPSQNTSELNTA
CDK6-CYCLIND3, sequence (P30281 whole entry partner): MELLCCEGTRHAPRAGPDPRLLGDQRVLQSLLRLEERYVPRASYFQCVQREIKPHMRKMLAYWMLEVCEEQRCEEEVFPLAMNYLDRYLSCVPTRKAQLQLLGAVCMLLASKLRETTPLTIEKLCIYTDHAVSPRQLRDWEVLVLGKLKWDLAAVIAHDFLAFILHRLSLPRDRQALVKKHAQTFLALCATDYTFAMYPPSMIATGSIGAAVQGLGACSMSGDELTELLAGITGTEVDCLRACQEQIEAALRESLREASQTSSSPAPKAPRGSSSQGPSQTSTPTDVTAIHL
CDK4-CYCLIND1, sequence (P11802 whole entry): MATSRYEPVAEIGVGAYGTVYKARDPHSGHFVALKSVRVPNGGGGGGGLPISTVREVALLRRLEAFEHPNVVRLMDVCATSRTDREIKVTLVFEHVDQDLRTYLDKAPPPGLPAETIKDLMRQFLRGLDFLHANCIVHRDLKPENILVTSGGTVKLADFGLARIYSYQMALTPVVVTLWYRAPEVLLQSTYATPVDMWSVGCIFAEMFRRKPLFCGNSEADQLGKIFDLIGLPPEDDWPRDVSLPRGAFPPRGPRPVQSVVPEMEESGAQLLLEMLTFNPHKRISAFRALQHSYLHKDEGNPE
CDK4-CYCLIND1, sequence (P24385 whole entry partner): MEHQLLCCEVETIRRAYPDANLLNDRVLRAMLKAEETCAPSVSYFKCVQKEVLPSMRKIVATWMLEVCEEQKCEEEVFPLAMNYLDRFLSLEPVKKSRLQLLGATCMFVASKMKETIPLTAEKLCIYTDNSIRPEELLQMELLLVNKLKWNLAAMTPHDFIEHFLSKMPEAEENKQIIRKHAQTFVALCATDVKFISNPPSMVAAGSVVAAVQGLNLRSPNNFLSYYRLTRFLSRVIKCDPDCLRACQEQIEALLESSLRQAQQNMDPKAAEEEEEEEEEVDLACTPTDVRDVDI

Row | IC50 (CDK4-CYCLIND1; [1]) | IC50 (CDK6-CYCLIND3; [2]) | IC50 (CDK4-CYCLIND1; [3]) | IC50 (CDK4-CYCLIND1; [4]) | IC50 (CDK6-CYCLIND3; [5]) | Compound
1 | 4.62 nM | 14.3 nM |  |  |  | CN(C)CCOc1ccc(Nc2ncc3cc(C#N)c(=O)n(C4CCCC4)c3n2)cc1 [Compound B15, 8-cyclopentyl-2-((4-(2-(dimethylamino)ethoxy)phenyl)amino)-7-oxo-7,8-dihydropyrido[2,3-d]pyrimidine-6-carbonitrile]
2 | 5.97 nM | 14.4 nM |  |  |  | N#Cc1cc2cnc(Nc3ccc(N4CC5(CNC5)C4)nc3)nc2n(C2CCCC2)c1=O [Compound B33, 2-((6-(2,6-diazaspiro[3.3]heptan-2-yl)pyridin-3-yl)amino)-8-cyclopentyl-7-oxo-7,8-dihydropyrido[2,3-d]pyrimidine-6-carbonitrile]
3 | 1.78 nM | 7.71 nM |  |  |  | CN1CCN(c2ccc(Nc3ncc4cc(C#N)c(=O)n(C5CCCC5)c4n3)cc2F)CC1 [Compound B17, 8-cyclopentyl-2-((3-fluoro-4-(4-methylpiperazin-1-yl)phenyl)amino)-7-oxo-7,8-dihydropyrido[2,3-d]pyrimidine-6-carbonitrile]
4 | 29.1 nM | 55.3 nM |  |  |  | N#Cc1cc2cnc(Nc3ccc(OCCN4CCCCC4)nc3)nc2n(C2CCCC2)c1=O [Compound B8, 8-cyclopentyl-7-oxo-2-((6-(2-(piperidin-1-yl)ethoxy)pyridin-3-yl)amino)-7,8-dihydropyrido[2,3-d]pyrimidine-6-carbonitrile]
5 | 9.27 nM | 27.9 nM |  |  |  | N#Cc1cc2cnc(Nc3ccc(N4CCC(N5CCOCC5)CC4)cn3)nc2n(C2CCCC2)c1=O [Compound B39, 8-cyclopentyl-2-((5-(4-morpholinopiperidin-1-yl)pyridin-2-yl)amino)-7-oxo-7,8-dihydropyrido[2,3-d]pyrimidine-6-carbonitrile]

Continued, molecule first:

Row | Compound | IC50 (CDK4-CYCLIND1; [1]) | IC50 (CDK6-CYCLIND3; [2]) | IC50 (CDK4-CYCLIND1; [3]) | IC50 (CDK4-CYCLIND1; [4]) | IC50 (CDK6-CYCLIND3; [5])
6 | CNC(=O)c1cc2cnc(Nc3ccc(N4CCN(C)CC4)c(F)c3)nc2n(C2CCCC2)c1=O [Compound B144, 8-cyclopentyl-2-((3-fluoro-4-(4-methylpiperazin-1-yl)phenyl)amino)-N-methyl-7-oxo-7,8-dihydropyrido[2,3-d]pyrimidine-6-carboxamide] |  |  | 13.6 nM and 10 nM | 13.6 nM and 10 nM | 138 nM
7 | CC(=O)NC(=O)c1cc2cnc(Nc3ccc(N4CCN(C)CC4)cn3)nc2n(C2CCCC2)c1=O [Compound B146, N-acetyl-8-cyclopentyl-2-((5-(4-methylpiperazin-1-yl)pyridin-2-yl)amino)-7-oxo-7,8-dihydropyrido[2,3-d]pyrimidine-6-carboxamide] |  |  | 459 nM | 459 nM | 1490 nM
8 | CN1CCN(c2cnc(Nc3ncc4cc(C#N)c(=O)n(C5CCCC5)c4n3)cc2C(F)(F)F)CC1 [Compound B5, 8-cyclopentyl-2-((5-(4-methylpiperazin-1-yl)-4-(trifluoromethyl)pyridin-2-yl)amino)-7-oxo-7,8-dihydropyrido[2,3-d]pyrimidine-6-carbonitrile] | 25700 nM | ≥ 30000 nM |  |  | 
9 | CC(C)N1CCN(c2ccc(Nc3ncc4cc(C#N)c(=O)n(C56CC(C5)C6)c4n3)nc2)CC1 [Compound B4, 8-(bicyclo[1.1.1]pentan-1-yl)-2-((5-(4-isopropylpiperazin-1-yl)pyridin-2-yl)amino)-7-oxo-7,8-dihydropyrido[2,3-d]pyrimidine-6-carbonitrile] | 213 nM | 154 nM |  |  | 
10 | CC(=O)c1c(C)c2cnc(Nc3ccc(N(C)CCN(C)C)cc3)nc2n(C2CCCC2)c1=O [Compound B64, 6-acetyl-8-cyclopentyl-2-((4-((2-(dimethylamino)ethyl)(methyl)amino)phenyl)amino)-5-methylpyrido[2,3-d]pyrimidin-7(8H)-one] |  |  | 8.22 nM | 8.22 nM | 76.1 nM
11 | CC(=O)c1c(C)c2cnc(Nc3ccc(OCCN(C)C)nc3)nc2n(C2CCCC2)c1=O [Compound B63, 6-acetyl-8-cyclopentyl-2-((6-(2-(dimethylamino)ethoxy)pyridin-3-yl)amino)-5-methylpyrido[2,3-d]pyrimidin-7(8H)-one] |  |  | 8.64 nM and 6.36 nM | 8.64 nM and 6.36 nM | 37 nM

— patent US20220220103A1, “CYCLIN-DEPENDENT KINASE INHIBITORS” (SPV THERAPEUTICS INC., priority 2018, published 2022)
